Assay results: patent publication US20030207819A1, “Compositions and methods for treating inflammatory connective tissue diseases” (priority 2002, published 2003)

How the values were obtained:
Type in all cases: in vivo, human
[1] = system: patient with undifferentiated connective tissue disease; assay: Example 1: clinical observation of patient on clarithromycin; details: person
Excerpt: We elected to continue them on this antibiotic. […] Because the patient was on Lodine (NSAID) at the same time, we elected to see if they could stop the Lodine and still have relief of symptoms.

[2] = system: patient with undifferentiated connective tissue disease; assay: Example 2: clarithromycin re-challenge of Example 1 patient, symptoms and laboratory assessments
Experimental: Subsequent to the observations made in Example 1, the patient was re-challenged with clarithromycin, and re-evaluated as to symptomatic efficiency. In parallel with clinical observations, laboratory assessments including erythrocyte sedimentation rate, C-reactive protein, and serum interleukins 1 and 6 were measured. The laboratory results are illustrated in Table 1.
On Jul. 29, 2002 the clarithromycin treatment of the patient from Example 1 was discontinued (Table 1). Their additional medications included: ZESTRIL® (Astra Zenica) at 1 mg/t.i.d., CALTRATE® with Vitamin D (Wyeth)/b.i.d., UNITHROID™ (Jerome Stevens Pharmaceuticals, Inc.) at 0.05 mg/day, TROZODONE® (Watson Laboratories, Inc.) at 50 mg/h.s., TYLENOL® (McNeil Consumer Brands) at 1 gm/p.r.n., multi-vitamins/p.r.n., iron tablets, quinine at 260 mg, and non-specific herbs. […] When the patient was observed on Aug. […] The symptoms were sufficiently severe that they asked to be restarted on clarithromycin. When observed on Aug. 15, 2002, they stated they had become “100% better” by Aug. 11, 2002. The patient was continued on clarithromycin at 500 mg b.i.d. and observed serially at weekly intervals on Aug. 22, 2002, Aug. 27, 2002, and Sep. 5, 2002.
These findings are similar to their clinical history over the past several years with respect to clarithromycin therapy and response of connective tissue symptoms.

[3] = system: patient with chondrocalcinosis leading to pseudorheumatoid pseudogout syndrome; assay: Example 3: clinical observation of patient on clarithromycin; details: person; clarithromycin 500 mg b.i.d. begun two weeks prior for pneumonia
Experimental: A patient has severe ditTuse generalized chondrocalcinosis leading to pseudorheumatoid pseudogout syndrome. Given the intensity of their chronic synovitis and the lack of response to steroids as well as NSAIDs, they were put on methotrexate, 10 mg/week and infliximab ([…]®, Centocor, Inc.), after which they did satisfactorily. The patient had bilateral total knee replacements and, subsequently was taken off the infliximab when they developed a knee infection postoperatively. The patient continued to have diffuse aches and pains and joint swelling. When seen in the office on Mar. 12, 2002, they spontaneously asked whether the medicine they were taking for their pneumonia could have an effect on their arthritis. Apparently they had begun clarithromycin 500 mg b.i.d. for their pneumonia two weeks prior and said they had “never felt as well” with respect to their joint symptoms as they had during the subsequent several days. They continued to feel much improved and asked if they could stay on the antibiotic.

[4] = system: patient with low-grade connective tissue symptoms; assay: Example 5: clarithromycin study, VAS and joint assessment
Excerpt: In 1991, it was elected to begin the patient on hydroxychloroquine ([…]®, Sanofi-Synthelabo, Inc.) given their low-grade connective tissue symptoms not responding to non-steroidal anti-inflammatory therapy. […] A trial of hydroxychloroquine was again initiated to see how they would tolerate it. […] Hydroxychloroquine was discontinued when they wanted to attempt getting pregnant again. Therapy most recently consisted of non-steroidal inflammatory agents and physical therapy.
On Feb. 27, 2003, the patient agreed to participate in the clarithromycin study. […] The patient was begun on clarithromycin (BIAXIN®, Abbott Laboratories) 500 mg twice per day.

[5] = system: patient with undifferentiated connective tissue disease; assay: Example 6: clarithromycin trial, VAS and joint assessment; details: for Patient VAS (Pain): baseline 89; for Practitioner VAS (Global): baseline 60; for Patient VAS (Global): baseline 63
Excerpt: A patient, was first seen in September 1999. […] They have used a number of anti-inflammatory agents frequently for therapy.
On the basis of the findings, including recurrent episodes of arthritis, Raynaud's, and thickening of the hands, connective tissue disease diagnoses such as Mixed Connective Tissue Disease or Progressive Systemic Sclerosis were considered.
Based on these findings, a diagnosis of Undifferentiated Connective Tissue Disease was made. Therapy was initiated with hydroxychloroquine ([…]®, Sanofi-Synthelabo, Inc.) and a non-steroidal anti-inflammatory agent. They utilized steroid dose packs periodically for symptomatic relief of their peripheral symptoms as well as their neck symptoms.
On examination, they had symptoms and findings much as before and a diagnosis of Undifferentiated Connective Tissue Disease was made. The patient agreed to undergo a trial with clarithromycin.
Following screening and baseline evaluations, the patient was begun on clarithromycin (BIAXIN®, Abbott Laboratories).
25, 2003 (“Visit 3”), for their first recheck visit.
When seen for their one month evaluation, the patient had been off steroid medication for approximately ten days.
Further assessment of their status was made on Apr. 13, 2003 at which time they were now off steroids for almost a one-month period.
Patient was again seen Apr. 21, 2003 (“Visit Four”), for their formal two-month follow-up on clarithromycin.

[6] = Aug. 8, 2002, 10 days off clarithromycin
[7] = Aug. 15, 2002, clarithromycin restarted
[8] = Aug. 22, 2002, on clarithromycin
[9] = Aug. 27, 2002, on clarithromycin
[10] = Jul. 29, 2002, on clarithromycin 500 mg BID
[11] = Sep. 5, 2002, on clarithromycin
[12] = Visit Three, clarithromycin for one month
[13] = Visit Three, clarithromycin for one month, baseline 3
[14] = Visit Four, Apr. 21, 2003, clarithromycin for two months
[15] = Visit Four, clarithromycin for two months

Compound: CC[C@H]1OC(=O)[C@H](C)[C@@H](O[C@H]2C[C@@](C)(OC)[C@@H](O)[C@H](C)O2)[C@H](C)[C@@H](O[C@@H]2O[C@H](C)C[C@H](N(C)C)[C@H]2O)[C@](C)(OC)C[C@@H](C)C(=O)[C@H](C)[C@@H](O)[C@]1(C)O [clarithromycin, 6-O-methylerythromycin]
- Symptoms ([1]; back on 500 mg/bid after 250 mg/bid): improved essentially completely
- symptoms with respect to connective tissue changes ([1]; clarithromycin 500 mg b.i.d. begun December 1998): significantly improved
- Symptoms ([1]; dose reduced to 250 mg/bid): symptoms returned
- undifferentiated connective disease status ([1]; last seen Feb. 12, 2002, continued clarithromycin): under control
- joint symptoms ([1]; reduced dose of 750 mg/day): increased swelling of the hands, painful wrists, knee swelling and hand stiffness
- ESR [2, 6]: 25 mm/hr
- IL-6 [2, 6]: 2.1 pg/mL
- Symptoms [2, 6]: generalized joint pain, associated with swelling
- Symptoms ([2]; Aug. 15, 2002, clarithromycin 500 mg b.i.d. restarted, better on Aug. 11, 2002): 100% better
- CPR [2, 7]: <0.3 mg/dL
- ESR [2, 7]: 21 mm/hr
- IL-6 [2, 7]: 0.9 pg/mL
- CPR [2, 8]: <0.3 mg/dL
- ESR [2, 8]: 34 mm/hr
- IL-6 [2, 8]: 0.7 pg/mL
- Symptoms ([2]; Aug. 22, 2002, on clarithromycin 500 mg b.i.d.): Doing well
- CPR [2, 9]: <0.3 mg/dL
- ESR [2, 9]: 21 mm/hr
- IL-6 [2, 9]: 1.1 pg/mL
- Symptoms ([2]; Aug. 27, 2002, on clarithromycin 500 mg b.i.d.): Doing well
- CPR [2, 10]: <0.3 mg/dL
- ESR [2, 10]: 29 mm/hr
- Symptoms ([2]; Jul. 29, 2002, on clarithromycin 500 mg po BID, discontinued at this visit): Good Control
- CPR [2, 11]: <0.3 mg/dL
- ESR [2, 11]: 34 mm/hr
- IL-6 [2, 11]: 1 pg/mL
- Symptoms ([2]; Sep. 5, 2002, on clarithromycin 500 mg b.i.d.): Doing well
- change in ESR, CRP, Interleukin-1, or Interleukin-6 ([2]; over the re-challenge Jul. 29 to Sep. 5, 2002): no significant change
- joint symptoms [3]: much improved
- Patient VAS (Pain) ([4]; Visit Three, Apr. 2, 2003, clarithromycin 500 mg twice per day for one month, VAS 0 to 100 mm, baseline 67): 26 mm
- joint pain, patient statement ([4]; Visit Three, clarithromycin 500 mg twice per day): became better pretty much right away
- joint tenderness and swelling on physical examination [4, 12]: decreased joint tenderness and swelling
- Tender/Painful Joints [4, 13]: 0
- Swollen Joints ([4]; Visit Three, clarithromycin for one month, baseline 6): 1
- Patient VAS (Global) ([4]; Visit Three, clarithromycin for one month, baseline 30): 12 mm
- Practitioner VAS (Global) ([4]; Visit Three, clarithromycin for one month, baseline 54): 25 mm
- side reaction ([4]; clarithromycin 500 mg twice per day, one month): metallic taste
- side reaction ([5]; Apr. 13, 2003, on clarithromycin): bad taste
- pain VAS, patient rating ([5]; Apr. 13, 2003, on clarithromycin, off steroids almost one month): 25 mm
- patient statement of improvement [5, 14]: 80% better
- side reaction [5, 14]: mild bad taste
- Patient VAS (Pain) [5, 14]: 11 mm
- Practitioner VAS (Global) [5, 15]: 4 mm
- Patient VAS (Global) [5, 15]: 14 mm
- Patient VAS (Pain) ([5]; Visit Three, Mar. 25, 2003, clarithromycin for one month, off steroid about ten days): 16 mm
- Tender/Painful Joints [5, 13]: 0
- Practitioner VAS (Global) [5, 12]: 31 mm
- Patient VAS (Global) [5, 12]: 51 mm
